Assay results published in US4191753A, “Anti-hypertensive peptide analogs” (University of Miami, priority 1978, dated 1980).
Where a SMILES comes first, the peptide text is derived from it.

Experiments:
[1] = cited from earlier work
[2] = tested on: patients; conditions: cited from earlier work
[3] = biological target: T1, ACE (Oryctolagus cuniculus, UniProt P12822); conditions: read-out: I50 reported by Cushman, et al.; literature value; cited from earlier work
T1 sequence (P12822 34-1310): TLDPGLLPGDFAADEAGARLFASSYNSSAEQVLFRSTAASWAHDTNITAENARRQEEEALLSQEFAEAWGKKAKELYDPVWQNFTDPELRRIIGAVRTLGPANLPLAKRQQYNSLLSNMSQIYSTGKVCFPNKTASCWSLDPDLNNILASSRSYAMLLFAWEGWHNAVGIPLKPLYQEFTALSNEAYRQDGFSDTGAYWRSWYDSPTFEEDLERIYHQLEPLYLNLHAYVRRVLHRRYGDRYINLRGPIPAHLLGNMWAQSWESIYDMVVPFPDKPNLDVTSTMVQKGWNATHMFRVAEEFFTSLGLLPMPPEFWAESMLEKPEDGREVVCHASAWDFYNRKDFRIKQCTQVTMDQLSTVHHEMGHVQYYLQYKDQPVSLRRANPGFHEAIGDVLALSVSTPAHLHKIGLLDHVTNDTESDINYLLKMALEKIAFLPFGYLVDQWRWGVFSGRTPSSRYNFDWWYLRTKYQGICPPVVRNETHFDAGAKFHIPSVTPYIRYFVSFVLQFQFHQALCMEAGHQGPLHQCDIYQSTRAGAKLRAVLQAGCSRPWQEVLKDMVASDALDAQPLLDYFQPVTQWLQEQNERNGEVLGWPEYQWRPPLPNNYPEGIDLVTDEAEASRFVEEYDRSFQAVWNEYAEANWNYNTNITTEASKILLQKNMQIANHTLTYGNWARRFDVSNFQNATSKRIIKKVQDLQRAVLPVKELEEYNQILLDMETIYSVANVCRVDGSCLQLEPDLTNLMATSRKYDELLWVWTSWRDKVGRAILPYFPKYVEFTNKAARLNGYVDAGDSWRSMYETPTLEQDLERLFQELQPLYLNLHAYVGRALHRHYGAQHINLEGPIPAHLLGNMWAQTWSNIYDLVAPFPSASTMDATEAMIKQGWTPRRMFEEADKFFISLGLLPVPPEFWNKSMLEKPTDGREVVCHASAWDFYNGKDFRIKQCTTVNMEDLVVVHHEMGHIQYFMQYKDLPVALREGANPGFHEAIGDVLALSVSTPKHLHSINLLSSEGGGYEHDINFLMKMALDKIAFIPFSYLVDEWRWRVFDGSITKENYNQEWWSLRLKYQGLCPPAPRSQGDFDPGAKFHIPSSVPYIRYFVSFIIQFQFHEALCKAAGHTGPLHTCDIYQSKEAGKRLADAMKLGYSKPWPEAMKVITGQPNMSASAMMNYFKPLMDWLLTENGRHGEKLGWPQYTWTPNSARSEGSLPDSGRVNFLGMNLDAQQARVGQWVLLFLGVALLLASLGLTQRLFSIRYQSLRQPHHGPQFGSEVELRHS

[4] = biological target: ACE (Homo sapiens, UniProt P12821); assay: biochemical
[5] = tested on: patients with hypertension; conditions: cited from earlier work
[6] = biological target: T2, human urinary angiotensin converting enzyme (Homo sapiens, UniProt P12821); assay: Inhibition of hydrolysis of [3H]benzoyl-Gly-His-Leu by human urinary angiotensin converting enzyme; type: biochemical; conditions: [3H]benzoyl-Gly-His-Leu 100 μM (approximately one-half of Km), 37° C., 15 min., pH 8.0; read-out: I50
T2 construct: human urinary angiotensin converting enzyme, prepared as described by Ryan, J., et al; from tissue; host or cells: human urine
Description: ΔPro^3 -BPP9a, ΔPro^5 -BPP9a, ΔPro^8 -BPP9a, and ΔPro^9 -BPP9a were each compared with BPP9a (<Glu-Trp-Pro-Arg-Pro-Gln-Ile-Pro-Pro; also known as SQ 20,881) for their abilities to inhibit the hydrolysis of [^3 H]benzoyl-Gly-His-Leu by human urinary angiotensin converting enzyme, prepared as described by Ryan, J., et al., Tissue and Cell 10, 555 (1978). A standard amount of enzyme (the amount required to hydrolyze 8% of substrate during the course of incubation at 37° C. for 15 min.) was incubated with [^3 H]benzoyl-Gly-His-Leu in a final reaction volume of 100 μl or 110 μl. The reaction mixture contained 0.05 M Hepes buffer, pH 8.0, 0.1 M NaCl, 0.75 M Na2 SO4, [^3 H]-benzoyl-Gly-His-Leu (100 μM at 10 mCi/mmole, enzyme and varying concentrations of inhibitor, from […]. Net enzyme activity was measured in terms of the rate of formation of [^3 H]benzoyl-glycine (^3 H-hippuric acid). Under the conditions of the assay, the initial substrate concentration is approximately one-half of Km. Results are expressed as I50 values, i.e., the concentration of a given inhibitor required to reduce enzyme activity by half.
These factors include the source of enzyme, its purity, the substrate used and its concentration, and the composition of the assay buffer. […] For example, Cushman, et al., supra, reported an I50 value for BPP9a of approximately 1000 nM, whereas Dorer, F.E., et al., Biochim. Biophys. Acta 429, 220 (1976) reported I50 values in the range 12nM-15nM. The sources of such variations are not known.

[7] = tested on: guinea pigs; assay: Mean arterial blood pressure of guinea pigs anesthetized with pentobarbital; type: in vivo, guinea pig; conditions: single intravenous injection, 2 mg; for ill effects in test animals: blood pressure reduced to shock levels; for abnormalities in the electrocardiogram: Lead II monitored
Description: ΔPro^3 -BPP9a and ΔPro^5 -BPP9a were tested for their ability to reduce mean arterial blood pressure of guinea pigs anesthetized with pentobarbital, an anesthetic thought to activate the renin-angiotensin system. Female guinea pigs (500-700 g body wgt.) of the Ft. Detrick-Hartley strain were injected intraperitoneally with pentobarbital, 30 mg/kg. Tracheostomy was performed, and the animals were ventilated with a small animal respirator. A polyethylene cannula was inserted into a femoral vein, and heparin, 1,000 units, was injected. A second cannula was inserted into a femoral artery for measurement of arterial blood pressure. The arterial cannula was connected to a pressure transducer, and the transducer was connected to a polygraph. Lead II of the electrocardiogram was monitored continuously.
Each of three guinea pigs received a single intravenous injection of ΔPro^3 -BPP9a, 2 mg in 0.25 ml of 0.9% (w/v) NaCl. On average, mean arterial blood pressure fell by 57.2% (81.7 mmHg to 35 mmHg). The maximum reduction was achieved within 15 sec. of injection. Each of seven guinea pigs received a single intravenous injection of ΔPro^5 -BPP9a, 2 mg in 0.25 ml of saline.

T2 sequence (P12821 30-1306): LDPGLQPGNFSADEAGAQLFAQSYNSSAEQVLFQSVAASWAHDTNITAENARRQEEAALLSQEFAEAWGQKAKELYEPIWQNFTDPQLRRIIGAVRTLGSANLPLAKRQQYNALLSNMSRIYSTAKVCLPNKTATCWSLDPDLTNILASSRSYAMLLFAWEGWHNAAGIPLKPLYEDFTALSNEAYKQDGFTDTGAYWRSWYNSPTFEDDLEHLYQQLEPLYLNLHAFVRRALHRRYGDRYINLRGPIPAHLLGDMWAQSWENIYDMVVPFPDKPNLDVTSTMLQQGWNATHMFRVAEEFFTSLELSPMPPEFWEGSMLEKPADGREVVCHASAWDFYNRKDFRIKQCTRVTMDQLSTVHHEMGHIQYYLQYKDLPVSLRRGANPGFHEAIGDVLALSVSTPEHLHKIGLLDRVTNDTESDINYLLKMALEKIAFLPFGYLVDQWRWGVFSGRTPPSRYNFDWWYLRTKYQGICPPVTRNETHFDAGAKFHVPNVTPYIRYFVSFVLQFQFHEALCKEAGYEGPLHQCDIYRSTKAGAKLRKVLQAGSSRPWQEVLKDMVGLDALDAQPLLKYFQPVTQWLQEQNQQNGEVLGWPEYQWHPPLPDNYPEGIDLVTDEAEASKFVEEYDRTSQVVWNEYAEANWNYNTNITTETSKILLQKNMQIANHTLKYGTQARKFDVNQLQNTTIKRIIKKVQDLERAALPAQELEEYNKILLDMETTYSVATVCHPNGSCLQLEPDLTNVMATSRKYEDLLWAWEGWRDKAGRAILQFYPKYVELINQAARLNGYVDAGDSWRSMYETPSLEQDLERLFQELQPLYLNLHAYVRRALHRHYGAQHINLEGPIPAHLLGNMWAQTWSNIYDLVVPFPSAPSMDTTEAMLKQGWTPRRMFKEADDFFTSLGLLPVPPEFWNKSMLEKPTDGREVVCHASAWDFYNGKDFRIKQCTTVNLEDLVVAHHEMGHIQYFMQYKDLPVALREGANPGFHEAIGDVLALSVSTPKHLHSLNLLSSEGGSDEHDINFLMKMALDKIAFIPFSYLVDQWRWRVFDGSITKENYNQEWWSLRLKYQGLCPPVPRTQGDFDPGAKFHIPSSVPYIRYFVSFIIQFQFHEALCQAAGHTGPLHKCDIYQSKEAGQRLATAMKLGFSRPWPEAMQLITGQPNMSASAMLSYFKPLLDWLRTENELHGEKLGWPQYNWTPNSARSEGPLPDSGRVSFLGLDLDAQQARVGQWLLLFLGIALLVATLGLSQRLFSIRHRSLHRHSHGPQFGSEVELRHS
ACE (Homo sapiens, UniProt P12821), sequence (P12821 30-1306, species assumed): as the sequence (P12821 30-1306) above

SMILES: C[C@H](CS)C(=O)N1CCCC1C(=O)O (stereo in doubt) [SQ 14,225, D-2-methyl-3-mercaptopropanoyl-L-proline]
- stability in solution [1]: instability of the drug in solution due to disulfide dimer formation
- patients known to benefit from ACE inhibitors who respond adversely ([2]; human, in vivo): ≤ 11%
- oral effectiveness ([2]; oral): effective orally

SMILES: CC[C@H](C)[C@H](NC(=O)[C@H](CCC(N)=O)NC(=O)[C@@H]1CCCN1C(=O)[C@H](CCCNC(=N)N)NC(=O)[C@@H]1CCCN1C(=O)[C@H](Cc1c[nH]c2ccccc12)NC(=O)[C@@H]1CCC(=O)N1)C(=O)N1CCC[C@H]1C(=O)N1CCC[C@H]1C(=O)O [BPP9a, <Glu-Trp-Pro-Arg-Pro-Gln-Ile-Pro-Pro]
- IC50 [3]: ~1 µM
- IC50 [4]: ~0.028 µM
- side reactions of the type observed with SQ 14,225, in clinical use of BPP9a [5]: have not been encountered previously
- IC50 [6]: 0.028 µM

SMILES: NC(N)=NCCC[C@H](NC(=O)[C@H](Cc1ccccc1)NC(=O)[C@@H]1CCCN1C(=O)[C@H](CO)NC(=O)[C@H](Cc1ccccc1)NC(=O)CNC(=O)[C@@H]1CCCN1C(=O)[C@@H]1CCCN1C(=O)[C@@H](N)CCCN=C(N)N)C(=O)O [bradykinin, ArgProProGlyPheSerProPheArg] (H-RPPGFSPFR-OH)
- IC50 [4]: ~0.5 µM

SMILES: CC[C@H](C)[C@H](NC(=O)[C@H](CCC(N)=O)NC(=O)[C@@H]1CCCN1C(=O)[C@H](CCCNC(=N)N)NC(=O)[C@@H]1C=CCN1C(=O)[C@H](Cc1c[nH]c2ccccc12)NC(=O)[C@@H]1CCC(=O)N1)C(=O)N1CCC[C@H]1C(=O)N1CCC[C@H]1C(=O)O [ΔPro^3 -BPP9a, <Glu-Trp-ΔPro-Arg-Pro-Gln-Ile-Pro-Pro]
- increase in heart rate [7]: 0-10%
- ill effects in test animals [7]: no ill effects
- abnormalities in the electrocardiogram [7]: no abnormalities were observed
- IC50 [6]: 0.0009 µM

SMILES: CC[C@H](C)[C@H](NC(=O)[C@H](CCC(N)=O)NC(=O)[C@@H]1C=CCN1C(=O)[C@H](CCCNC(=N)N)NC(=O)[C@@H]1CCCN1C(=O)[C@H](Cc1c[nH]c2ccccc12)NC(=O)[C@@H]1CCC(=O)N1)C(=O)N1CCC[C@H]1C(=O)N1CCC[C@H]1C(=O)O [ΔPro^5 -BPP9a, <Glu-Trp-Pro-Arg-ΔPro-Gln-Ile-Pro-Pro]
- increase in heart rate [7]: 0-10%
- ill effects in test animals [7]: no ill effects
- abnormalities in the electrocardiogram [7]: no abnormalities were observed
- IC50 [6]: 0.0009 µM

SMILES: CC[C@H](C)[C@H](NC(=O)[C@H](CCC(N)=O)NC(=O)[C@@H]1CCCN1C(=O)[C@H](CCCNC(=N)N)NC(=O)[C@@H]1CCCN1C(=O)[C@H](Cc1c[nH]c2ccccc12)NC(=O)[C@@H]1CCC(=O)N1)C(=O)N1CC=C[C@H]1C(=O)N1CCC[C@H]1C(=O)O [ΔPro^8 -BPP9a, <Glu-Trp-Pro-Arg-Pro-Gln-Ile-ΔPro-Pro]
- IC50 [6]: 0.06 µM

SMILES: CC[C@H](C)[C@H](NC(=O)[C@H](CCC(N)=O)NC(=O)[C@@H]1CCCN1C(=O)[C@H](CCCNC(=N)N)NC(=O)[C@@H]1CCCN1C(=O)[C@H](Cc1c[nH]c2ccccc12)NC(=O)[C@@H]1CCC(=O)N1)C(=O)N1CCC[C@H]1C(=O)N1CC=C[C@H]1C(=O)O [ΔPro^9 -BPP9a, <Glu-Trp-Pro-Arg-Pro-Gln-Ile-Pro-ΔPro]
- IC50 [6]: 0.00015 µM
